Experimental data published in BindingDB's records for doi:10.1016/j.bmc.2017.05.049 (Peking University, 2017).

How the values were obtained:
[1] = Inhibition of trypsin-like activity of 20S proteasome in human HL60 cells using Z-LRRaminoluciferin as substrate pretreated for 2 hrs followed by substrate addition by […] assay
[2] = Inhibition of PGPH-like activity of 20S proteasome in human HL60 cells using Z-nLPnLDaminoluciferin as substrate pretreated for 2 hrs followed by substrate addition by […] assay

IC50 [1]: 1660 nM
IC50 [2]: 1250 nM
SMILES: CC(C)C[C@H](NC(=O)OCc1ccccc1)C(=O)N[C@@H](Cc1ccc2ccccc2c1)C(=O)N1CCC[C@H]1B(O)O
